The text below walks through data of US20220401564A1 (DANA-FARBER CANCER INSTITUTE, INC., priority 2019, published 2022).

The target in the test is T1, HDAC8 (Homo sapiens, UniProt Q9BY41).
T1 sequence (Q9BY41 1-377): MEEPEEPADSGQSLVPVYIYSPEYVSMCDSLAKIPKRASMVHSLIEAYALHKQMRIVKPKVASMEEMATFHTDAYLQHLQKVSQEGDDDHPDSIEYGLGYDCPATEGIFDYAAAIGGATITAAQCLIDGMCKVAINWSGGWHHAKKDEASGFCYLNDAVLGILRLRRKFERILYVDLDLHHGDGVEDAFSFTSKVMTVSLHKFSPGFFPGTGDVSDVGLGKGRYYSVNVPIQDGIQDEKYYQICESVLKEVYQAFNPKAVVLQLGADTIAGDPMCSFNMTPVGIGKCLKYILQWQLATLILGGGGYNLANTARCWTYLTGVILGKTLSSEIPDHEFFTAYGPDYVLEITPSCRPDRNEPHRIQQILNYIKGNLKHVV
Nature of the test: Change in cellular protein abundance (TMT proteomics) in Kelly cells. The arrangement: relative change in relative protein abundance with treatment of Kelly cells; endogenous in cells; host or cells: Kelly cells. The test is classed as cell-based. The note with it: FIG. 3A.

“Also recorded” adds a separate entry of the source.

As for `Cc1ncsc1-c1ccc(CNC(=O)[C@@H]2C[C@@H](O)CN2C(=O)[C@@H](NC(=O)C2(F)CC2)C(C)(C)C)c(OCCCCCN(CCc2c[nH]c3ccccc23)Cc2ccc(/C=C/C(=O)NO)cc2)c1` [Compound 7, (2S,4R)—N-(2-((5-((2-(1H-indol-3-yl)ethyl)(4-((E)-3-(hydroxyamino)-3-oxoprop-1-en-1-yl)benzyl)amino)pentyl)oxy)-4-(4-methylthiazol-5-yl)benzyl)-1-((S)-2-(1-fluorocyclopropane-1-carboxamido)-3,3-dimethylbutanoyl)-4-hydroxypyrrolidine-2-carboxamide], the “HDAC8 protein levels, relative protein abundance compared to DMSO control” value is “promote degradation; also recorded: significant and selective reduction”.
